Target: T1, human mGlu2 receptor (Homo sapiens, UniProt Q14416)
T1 construct: expressed in transfected cells; host or cells: CHO cells (membrane preparation)
Assay: [35S]GTPγS binding assay (mGluR2 negative allosteric modulation)
Assay type: biochemical
Settings: for IC50: membranes from CHO cells transfected with human mGlu2 receptor, glutamate 60 μM, pIC50 = −log IC50 (M), read-out: GTPγS - hmGluR2 anGT pIC50 (converted); for Emax / GTPγS - hmGluR2 anGT Emax: relative maximal effect: maximal % inhibition relative to the control glutamate response; for Emax: read-out: GTPγS - hmGluR2 anGT Emax
Procedure: 1) [^35S]GTPγS binding assay
The [^35S]GTPγS binding assay is a functional membrane-based assay used to study G-protein coupled receptor (GPCR) function whereby incorporation of a non-hydrolysable form of GTP, [^35S]GTPγS (guanosine 5′-triphosphate, labelled with […] ^35S), is measured. The G-protein a subunit catalyzes the exchange of guanosine 5′-diphosphate (GDP) by guanosine triphosphate (GTP) and on activation of the GPCR by an agonist, [^35S]GTPγS, becomes incorporated and cannot be cleaved to continue the exchange cycle (Harper (1998) Current Protocols in Pharmacology 2.6.1-10, John Wiley & Sons, Inc.). […] Here we describe the use of the [^35S]GTPγS binding assay using membranes from cells transfected with the human mGlu2 receptor and adapted from Schaffhauser et al. (Molecular Pharmacology, 2003, […]) for the detection of the negative allosteric modulation (NAM) properties of the compounds of this invention.
CHO-cells were cultured to pre-confluence and stimulated with 5 mM butyrate for 24 h. Cells were then collected by scraping in PBS and cell suspension was centrifuged (10 min at 4000 RPM in benchtop centrifuge). Supernatant was discarded and pellet gently resuspended in 50 mM Tris-HCl, pH 7.4 by mixing with an Ultra Turrax homogenizer. The suspension was centrifuged at 12,400 RPM (Sorvall F14S-6x250Y) for 10 minutes and the supernatant discarded. The pellet was homogenized in 5 mM Tris-HCl, pH 7.4 using an Ultra Turrax homogenizer and centrifuged again (13,000 RPM, 20 min, 4° C.). The final pellet was resuspended in 50 mM Tris-HCl, pH 7.4 and stored at −80° C. in appropriate aliquots before use. Protein concentration was determined by the Bradford method (Bio-Rad, USA) with bovine serum albumin as standard.
Measurement of mGluR2 negative allosteric modulatory activity of test compounds was performed as follows. Test compounds and glutamate were diluted in assay buffer containing 10 mM HEPES acid, 10 mM HEPES salt, pH 7.4, 100 mM NaCl, 3 mM MgCl2 and 10 μM GDP. Human mGlu2 receptor-containing membranes were thawed on ice and diluted in assay buffer supplemented with 18 μg/ml saponin. […] After addition of [^35S]GTPγS (f.c. 0.1 nM), assay mixtures were shaken briefly and further incubated to allow [^35S]GTPγS incorporation on activation (30 minutes, 30° C.). Final assay mixtures contained 7 μg of membrane protein in 10 mM HEPES acid, 10 mM HEPES salt, pH 7.4, 100 mM NaCl, 3 mM MgCl2, 10 μM GDP and 10 μg/ml saponin. Total reaction volume was 200 μl. Reactions were terminated by rapid filtration through Unifilter-96 GF/B plates (Perkin Elmer, Massachusetts, USA) using a 96-well filtermate universal harvester. Filters were washed 6 times with ice-cold 10 mM NaH2PO4/10 mM Na2HPO4, pH 7.4. Filters were then air-dried, and 30 μl of liquid scintillation cocktail (Microscint-O) was added to each well. Membrane-bound radioactivity was counted in a Topcount.
The concentration-response curves of representative compounds of the present invention were generated using the Lexis software interface (developed at J&J). Data were calculated as % of the control glutamate response, defined as the response that is generated upon addition of an EC80-equivalent concentration of glutamate.

T1 sequence (Q14416 19-872): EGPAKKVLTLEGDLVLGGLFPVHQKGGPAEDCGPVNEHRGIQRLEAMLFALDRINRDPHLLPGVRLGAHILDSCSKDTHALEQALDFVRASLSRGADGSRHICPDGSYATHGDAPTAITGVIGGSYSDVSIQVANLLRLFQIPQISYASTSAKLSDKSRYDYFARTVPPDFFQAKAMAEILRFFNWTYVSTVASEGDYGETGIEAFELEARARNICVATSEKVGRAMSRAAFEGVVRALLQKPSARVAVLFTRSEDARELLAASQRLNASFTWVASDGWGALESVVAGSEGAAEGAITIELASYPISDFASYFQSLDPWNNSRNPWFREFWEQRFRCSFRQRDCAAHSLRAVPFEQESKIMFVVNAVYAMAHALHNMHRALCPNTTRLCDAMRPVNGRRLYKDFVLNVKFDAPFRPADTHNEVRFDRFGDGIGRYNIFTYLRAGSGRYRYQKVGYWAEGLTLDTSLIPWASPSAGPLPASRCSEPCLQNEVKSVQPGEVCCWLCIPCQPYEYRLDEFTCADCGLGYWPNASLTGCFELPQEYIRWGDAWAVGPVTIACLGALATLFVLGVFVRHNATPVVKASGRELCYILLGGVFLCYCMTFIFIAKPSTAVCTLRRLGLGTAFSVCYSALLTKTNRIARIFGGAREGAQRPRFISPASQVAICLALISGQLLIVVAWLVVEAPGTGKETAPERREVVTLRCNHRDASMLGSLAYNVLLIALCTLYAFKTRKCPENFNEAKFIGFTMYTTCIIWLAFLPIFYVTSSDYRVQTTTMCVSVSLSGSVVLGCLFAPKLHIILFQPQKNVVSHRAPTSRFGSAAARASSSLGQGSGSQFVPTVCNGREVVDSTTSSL

Row | SMILES | IC50 | Emax | GTPγS - hmGluR2 anGT Emax
1 | CCCNc1cc(-c2cnn3c2C(=O)N(c2ccc(C(F)(F)F)c(C)c2)C[C@@H]3C)ccn1 [compound 258] | 6.03e-09 M | 108% | –
2 | C[C@H]1CN(c2ccc(C(F)(F)F)cc2)C(=O)c2c(-c3ccnc(N4CC(F)C4)c3)cnn21 [compound 94] | 5.5e-08 M | 108% | –
3 | Cc1cc(-c2cnn3c2C(=O)N(c2ccc(C(F)(F)F)cc2)CC3C(F)F)ccn1 (centres unmarked) [compound 181, 7-(Difluoromethyl)-3-(2-methyl-4-pyridyl)-5-[4-(trifluoromethyl)phenyl]-6,7-dihydropyrazolo[1,5-a]pyrazin-4-one] | 4.17e-07 M | 103% | –
4 | CNc1cc(-c2cnn3c2C(=O)N(c2ccc(Cl)c(Cl)c2)CC3CF)ccn1 (single isomer, unassigned) [compound 185] | 6.03e-09 M | – | 104%
5 | Cc1cc(-c2cnn3c2C(=O)N(c2ccc(C(C)C)cc2)C[C@@H]3C)ccn1 [compound 65] | 4.47e-08 M | 106% | –
6 | Cc1cc(-c2cnn3c2C(=O)N(c2cc(Cl)c(Cl)cn2)C[C@@H]3C)ccn1 [compound 203] | 6.76e-09 M | 105% | –
7 | C[C@H]1CN(c2ccc(C(F)(F)F)cn2)C(=O)c2c(-c3ccncc3)cnn21 [compound 190] | 2.09e-07 M | 105% | –
8 | Cc1cc(-c2cnn3c2C(=O)N(c2ccc(C(F)(F)F)c(OC(C)C)c2)C[C@@H]3C)ccn1 [compound 154] | 2e-08 M | 104% | –
9 | Cc1cc(-c2cnn3c2C(=O)N(c2ccc(C(F)(F)F)c(OCCF)c2)C[C@@H]3C)ccn1 [compound 48] | 7.76e-09 M | 100% | –
10 | CC(=O)N1CCN(c2cc(-c3cnn4c3C(=O)N(c3ccc(C(F)(F)F)cc3)C[C@@H]4C)ccn2)CC1 [compound 106, (7S)-3-[2-(4-Acetylpiperazin-1-yl)-4-pyridyl]-7-methyl-5-[4-(trifluoromethyl)phenyl]-6,7-dihydropyrazolo[1,5-a]pyrazin-4-one] | 6.03e-07 M | 109% | –
11 | Cc1cc(-c2cnn3c2C(=O)N(c2ccc(Cl)cn2)C[C@@H]3C)ccn1 [compound 187] | 3.24e-07 M | 108% | –
12 | Cc1cc(-c2cnn3c2C(=O)N(c2cc(Cl)c(C)cn2)C[C@@H]3C)ccn1 [compound 198] | 9.12e-08 M | 104% | –
13 | COc1nc(N2C[C@H](C)n3ncc(-c4ccnc(N5CCC5)c4)c3C2=O)ccc1C(F)(F)F [compound 209] | 6.46e-09 M | 104% | –
14 | CNc1cc(-c2cnn3c2C(=O)N(c2ccc(Cl)c(Cl)c2)CC3CF)ccn1 (centres unmarked) [compound 93] | 1.82e-08 M | 105% | –
15 | C[C@H]1CN(c2ccc(C(F)(F)F)c(Cl)c2)C(=O)c2c(-c3ccnc(OCCF)c3)cnn21 [compound 177] | 9.33e-09 M | 105% | –
16 | Cc1cc(-c2cnn3c2C(=O)N(c2cc(C)c(C(F)(F)F)cn2)C[C@@H]3C)ccn1 [compound 193] | 1.91e-08 M | 103% | –
17 | Cc1cc(N2C[C@H](C)n3ncc(-c4ccnc(N5CCC5)c4)c3C2=O)ccc1C(F)(F)F [compound 260] | 3.55e-09 M | 105% | –
18 | CNc1cc(-c2cnn3c2C(=O)N(c2ccc(C(F)(F)F)cc2)C[C@@H]3C)cc(C)n1 [compound 241] | 1.82e-08 M | 109% | –
19 | C[C@H]1CN(c2ccc(Cl)c(Cl)c2)C(=O)c2c(-c3ccnc(C4CC4)c3)cnn21 [compound 122] | 3.72e-09 M | 108% | –
20 | CCCNc1cc(-c2cnn3c2C(=O)N(c2ccc(C(F)(F)F)cc2)C[C@@H]3C)ccn1 [compound 259] | 1.78e-08 M | 105% | –
21 | Cc1cc(-c2cnn3c2C(=O)N(c2ccc(C(C)(C)C)cc2)C[C@@H]3C)ccn1 [compound 141] | 6.17e-08 M | 102% | –
22 | C[C@H]1CN(c2ccc(C(F)(F)F)c(CF)c2)C(=O)c2c(-c3ccnc(N(C)C)c3)cnn21 [compound 246] | 4.17e-09 M | 116% | –

Row | SMILES | IC50 | Emax | GTPγS - hmGluR2 anGT Emax
23 | CCCNc1cc(-c2cnn3c2C(=O)N(c2ccc(Cl)c(Cl)c2)C[C@@H]3C)ccn1 [compound 263] | 4.68e-09 M | 109% | –
24 | C[C@H]1CN(c2ccc(C(F)(F)F)cc2)C(=O)c2c(-c3ccnc(F)c3)cnn21 [compound 247] | 3.02e-08 M | 109% | –
25 | CNc1cc(-c2cnn3c2C(=O)N(c2ccc(C(F)(F)F)cc2)C[C@@H]3C)cc(F)n1 [compound 243] | 2.24e-08 M | 116% | –
26 | COCC1CN(c2ccc(Cl)c(Cl)c2)C(=O)c2c(-c3ccnc(C)c3)cnn21 (single isomer, unassigned) [compound 119] | 2.51e-06 M | – | 100%
27 | CCOc1ccc(Cl)c(N2C[C@H](C)n3ncc(-c4ccnc(C)c4)c3C2=O)n1 [compound 195] | 4.07e-06 M | 92% | –
28 | COc1nc(N2C[C@H](C)n3ncc(-c4ccnc(C)c4)c3C2=O)ccc1Cl [compound 206] | 1.78e-08 M | 111% | –
29 | COc1cc(-c2cnn3c2C(=O)N(c2ccc(Cl)cc2)C[C@@H]3C)ccn1 [compound 89] | 4.17e-08 M | 104% | –
30 | Cc1cc(-c2cnn3c2C(=O)N(c2ccc(OC(C)C(F)(F)F)cc2)C[C@@H]3C)ccn1 (some centres unmarked) [compound 165] | 1.95e-08 M | 102% | –
31 | CC(C)Nc1cc(-c2cnn3c2C(=O)N(c2ccc(Cl)c(Cl)c2)C[C@@H]3C)ccn1 [compound 261] | 1.1e-08 M | 107% | –
32 | CCN(C)c1cc(-c2cnn3c2C(=O)N(c2ccc(C(F)(F)F)cc2)C[C@@H]3C)ccn1 [compound 253] | 6.17e-09 M | 111% | –
33 | Cc1cc(-c2cnn3c2C(=O)N(c2ccc(C(F)(F)F)c(C)n2)C[C@@H]3C)ccn1 [compound 192, (7S)-7-Methyl-3-(2-methyl-4-pyridyl)-5-[6-methyl-5-(trifluoromethyl)-2-pyridyl]-6,7-dihydropyrazolo[1,5-a]pyrazin-4-one] | 7.41e-09 M | 106% | –
34 | CC(C)Nc1cc(-c2cnn3c2C(=O)N(c2ccc(C(F)(F)F)c(Cl)c2)C[C@@H]3C)ccn1 [compound 262] | 6.17e-09 M | 109% | –
35 | Cc1cc(-c2cnn3c2C(=O)N(c2ccc(C(C)O)cc2)C[C@@H]3C)ccn1 (stereo partly drawn) [compound 149, (7S)-5-[4-(1-Hydroxyethyl)phenyl]-7-methyl-3-(2-methyl-4-pyridyl)-6,7-dihydropyrazolo[1,5-a]pyrazin-4-one] | > 5.01e-05 M | 49% | –
36 | CCCNc1cc(-c2cnn3c2C(=O)N(c2ccc(C(F)(F)F)c(Cl)c2)C[C@@H]3C)ccn1 [compound 264] | 2.69e-09 M | 108% | –
37 | Cc1cc(-c2cnn3c2C(=O)N(c2ccc(C(F)(F)F)c(CF)c2)C[C@@H]3C)ccn1 [compound 98] | 6.46e-09 M | 111% | –
38 | Cc1cc(-c2cnn3c2C(=O)N(c2ccc(C(F)(F)F)cn2)CC3)ccn1 [compound 211] | 3.72e-06 M | 92% | –
39 | CNc1cc(-c2cnn3c2C(=O)N(c2ccc(Cl)cc2)C[C@@H]3C)ccn1 [compound 178] | 2.4e-08 M | 107% | –
40 | Cc1cc(-c2cnn3c2C(=O)N(c2ccc(Cl)c(Cl)c2)CC3CF)ccn1 (single isomer, unassigned) [compound 116] | 5.62e-07 M | – | 105%
41 | COCC1CN(c2ccc(C(F)(F)F)cc2)C(=O)c2c(-c3ccnc(C)c3)cnn21 (single isomer, unassigned) [compound 120] | 6.46e-08 M | – | 106%
42 | Cc1cc(-c2cnn3c2C(=O)N(c2ccc4c(c2)OCCO4)C[C@@H]3C)ccn1 [compound 42] | 3.09e-06 M | 102% | –
43 | CCOc1ccc(N2C[C@H](C)n3ncc(-c4ccnc(C)c4)c3C2=O)cc1Cl [compound 17] | 4.79e-08 M | 104% | –

Reference: patent US10106542B2, “Substituted 6,7-dihydropyrazolo[1,5-a]pyrazines as negative allosteric modulators of mGluR2 receptors” (Janssen Pharmaceutica NV, priority 2013, dated 2018)
